Measurements reported in PubChem BioAssay AID434954 (Broad Institute, 2010).
Active and inactive are the calls of the source.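 Rule for the calls: active = IC50 at or below a set limit above the highest tested dose; inconclusive = flat curve with 30 to 70% inhibition, or poor fit; inactive = the rest.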

The compounds below were run against Glycogen synthase kinase-3 beta (Homo sapiens) (UniProt P49841) (assay: GSK3beta kinase inhibitor potency, dose response, biochemical, luminescence, cell-free homogeneous, retest (AID 434954)). Conditions: recombinant GSK3beta, ADP-Glo luminescence, 60 min.
Chain of Glycogen synthase kinase-3 beta (Homo sapiens) (P49841 whole entry, looked up): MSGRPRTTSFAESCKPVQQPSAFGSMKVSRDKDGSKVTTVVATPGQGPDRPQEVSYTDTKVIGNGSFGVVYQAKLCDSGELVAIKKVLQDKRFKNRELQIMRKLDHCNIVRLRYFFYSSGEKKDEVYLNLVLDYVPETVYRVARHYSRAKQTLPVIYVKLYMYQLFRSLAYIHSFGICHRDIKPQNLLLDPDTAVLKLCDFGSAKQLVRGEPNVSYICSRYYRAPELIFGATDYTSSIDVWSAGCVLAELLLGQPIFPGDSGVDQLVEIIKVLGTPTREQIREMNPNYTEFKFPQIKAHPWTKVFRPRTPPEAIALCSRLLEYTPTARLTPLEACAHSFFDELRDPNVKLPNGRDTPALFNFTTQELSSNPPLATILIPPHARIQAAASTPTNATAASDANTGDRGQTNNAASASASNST
`Nc1ncnc2c1ncn2[C@@H]1O[C@H](CO)[C@@H](O)[C@@H]1O` was tested, and the IC50 was > 30 µM (inactive).
In the case of `COc1cc(/C=N/Nc2ccc([N+](=O)[O-])cn2)cc(OC)c1O`, the IC50 is reported as 5.41 µM.
Compound `COc1ccc(OC)c(N=c2oc3cc(O)ccc3cc2C(N)=O)c1` has an IC50 of 11.9 µM.
In the case of `CCOC(=O)C1=C(C(F)(F)F)Nc2ncnn2C1c1cc(OC)ccc1OC` (stereo not given), the IC50 is reported as > 30 µM (inactive).
With `CC(C)n1c(O)c(C=NCc2cccnc2)c(=O)[nH]c1=S` the IC50 was > 30 µM (inactive).
For `COc1ccc(-c2nn(-c3ccccc3)cc2/C=N/Nc2ccc(Cl)c(C(=O)O)c2)cc1OC`, the IC50 was > 30 µM (inactive).
With `Oc1ccccc1/C=N/Nc1nn[nH]n1` the IC50 was > 30 µM (inactive).
In the case of `CCOC(=O)c1sc2c(c1C)C(c1cccs1)C1=C(CCCC1=O)N2` (stereo not given), the IC50 is reported as > 30 µM (inactive).
With `CCCC1=C(C(=O)OCC)C(c2sccc2C)n2ncnc2N1` (stereo not given) the IC50 was > 30 µM (inactive).
For `CSc1nc2n(n1)C(c1cccs1)C1=C(CCCC1=O)N2` (stereo not given), the IC50 was > 30 µM (inactive).
`O=C(O)CC1S/C(=N/N=C/c2ccc(-c3ccc(Cl)c([N+](=O)[O-])c3)o2)NC1=O` (stereo not given) was tested, and the IC50 was > 30 µM (inactive).
`O=C1CC(c2c[nH]c3ccccc23)C(=O)N1c1ccccc1` (stereo not given) was tested, and the IC50 was > 30 µM (inactive).
For `Nc1ncnc2c1ncn2[C@@H]1O[C@H](COP(=O)(O)O)[C@@H](O)[C@H]1O`, the IC50 was > 30 µM (inactive).
For `C(=N\Nc1nccc(-c2cccnc2)n1)/c1ccccc1`, the IC50 was 16.9 µM.
Compound `CC1=C(C(=O)OC(C)C)C(c2c[nH]c3ccccc23)n2ncnc2N1` (stereo not given) has an IC50 of 1.81 µM.
`COc1cccc(C2C(C#N)=C(C)NC3=C2C(=O)CC(C)(C)C3)c1` (stereo not given) was tested, and the IC50 was > 30 µM (inactive).
For `N#CC(=C=[N-])c1nc2ccccc2nc1-[n+]1cccc(NC(=O)c2ccccc2)c1`, the IC50 was > 30 µM (inactive).
With `C=CCOc1ccc(/C=N/Nc2ccccn2)cc1OC` the IC50 was > 30 µM (inactive).
With `COc1cc(C2C3=C(CC(C)(C)CC3=O)Nc3c2c(=O)[nH]c(=O)n3Cc2ccccc2)ccc1O` (stereo not given) the IC50 was > 30 µM (inactive).
For `Cc1c(C=Nc2ccc(S(=O)(=O)CCO)cc2)c(O)[nH]c(=O)c1C#N`, the IC50 was > 30 µM (inactive).
With `COc1cccc(C2Nc3ccccc3NC3=C2C(=O)CC(C)(C)C3)c1` (stereo not given) the IC50 was > 30 µM (inactive).
With `CC1=C(C(N)=O)C(c2sccc2C)n2nnnc2N1` (stereo not given) the IC50 was > 30 µM (inactive).
In the case of `COc1ccc(-c2nn(-c3ccccc3)cc2/C=N/Nc2ccccn2)cc1`, the IC50 is reported as > 30 µM (inactive).
With `O=c1[nH]c(=O)n(CCc2ccc(F)cc2)c(O)c1/C=N/N1CCCCC1` the IC50 was > 30 µM (inactive).
In the case of `Cc1c(C#N)c(O)[nH]c(=O)c1N=Nc1ccc(Br)cc1C(=O)O`, the IC50 is reported as > 30 µM (inactive).
For `COCCOC(=O)C1=C(C)Nc2ncnn2C1c1ccccc1` (stereo not given), the IC50 was > 30 µM (inactive).
`O/N=C/c1cn(-c2ccccc2)nc1-c1ccccc1` showed an IC50 of 26 µM.
In the case of `COc1cc(/C=N/Nc2nc(Nc3ccccc3)nc(N3CCCCC3)n2)ccc1OCC(=O)O`, the IC50 is reported as > 30 µM (inactive).
Work on `COc1cc(/C=N/Nc2ccc(C(F)(F)F)cn2)ccc1O` yielded an IC50 of 10.1 µM.
`O=C(O)c1ccc(N=Nc2c(O)[nH]c3cc(Cl)ccc23)cc1` showed an IC50 of 19.1 µM.
For `COc1ccc(C2C(C(C)=O)=C(O)C(=O)N2c2nccs2)c(OC)c1` (stereo not given), the IC50 was > 30 µM (inactive).
For `Nc1nc(F)nc2c1ncn2[C@@H]1O[C@H](CO)[C@@H](O)[C@H]1O`, the IC50 was > 30 µM (inactive).
`Oc1ccc(/C=N/Nc2ccc(C(F)(F)F)cn2)cc1O` was tested, and the IC50 was 16.1 µM.
`CCCCOC(=O)C1=C(C)Nc2ncnn2C1c1cccc(OC)c1OC` (stereo not given) gave an IC50 of 4.25 µM.
For `COc1cc(/C=N/O)ccc1OCc1ccccc1Cl`, the IC50 was > 30 µM (inactive).
`Cc1ccc(C2C3=C(CC(C)(C)CC3=O)Nc3n[nH]c(C)c32)cc1` (stereo not given) gave an IC50 of 9.26 µM.
`N#CC(C#N)=C1NC(N)=C(C#N)C(c2ccccc2)=C1C#N` was tested, and the IC50 was 19.2 µM.
`Fc1ccccc1/C=N/Nc1ncnc2nc[nH]c12` gave an IC50 of 11.2 µM.
`Nc1ncnc2c1ncn2C1OC(COP(=O)(O)O)C(O)C1O` (stereo not given) was tested, and the IC50 was > 30 µM (inactive).
With `COc1ccc(/C=N/Nc2ccc([N+](=O)[O-])cc2)cc1O` the IC50 was > 30 µM (inactive).
With `CCc1ccc(C2NC(=S)NC3=C2C(=O)CC(C)(C)C3)cc1` (stereo not given) the IC50 was > 30 µM (inactive).
For `COC(=O)c1ccc(N2C(=O)CC(N3CCN(C(=O)c4ccco4)CC3)C2=O)cc1` (stereo not given), the IC50 was > 30 µM (inactive).
For `CC1=C(C(=O)OCc2ccccc2)C(c2ccccc2OC(F)F)NC(=O)N1` (stereo not given), the IC50 was 4.4 µM.
For `CSc1nc2c(c(=O)[nH]1)C(c1ccccc1)C1=C(CC(C)(C)CC1=O)N2` (stereo not given), the IC50 was > 30 µM (inactive).
In the case of `CC1=C(C(=O)Nc2ccccc2F)C(c2cccs2)C2=C(CCCC2=O)N1` (stereo not given), the IC50 is reported as > 30 µM (inactive).
`O=C(O)c1cc(-c2ccc(/C=N/Nc3ccc(Cl)cc3)o2)ccc1Cl` was tested, and the IC50 was > 30 µM (inactive).
For `CCCCCOC(=O)C1=C(C)Nc2ncnn2C1c1cccs1` (stereo not given), the IC50 was > 30 µM (inactive).
For `CCOC(=O)C1=C(CN2CCSCC2)NC(=O)NC1c1cc(C)ccc1C` (stereo not given), the IC50 was > 30 µM (inactive).
With `CCOc1ccc(N2C(=O)C(Cl)=C(Nc3ccccc3O)C2=O)cc1` the IC50 was > 30 µM (inactive).
`CCN(CC)S(=O)(=O)c1cccc(N2CC(O)=C(c3ccccc3)C2=N)c1` was tested, and the IC50 was > 30 µM (inactive).
With `Cc1noc2c1C(c1ccc(N(C)C)cc1)C1=C(CC(C)(C)CC1=O)N2` (stereo not given) the IC50 was > 30 µM (inactive).
In the case of `C/C(=N\Nc1nccnc1Cl)c1ccc(Br)cc1`, the IC50 is reported as > 30 µM (inactive).
Work on `Cc1[nH]nc2c1C(c1ccc(N(C)C)cc1)C1=C(CC(C)(C)CC1=O)N2` (stereo not given) yielded an IC50 of 28 µM.
`CCc1ccccc1N1C(=O)CC(N2CCc3ccccc32)C1=O` (stereo not given) was tested, and the IC50 was > 30 µM (inactive).
For `O=C(Nc1cccc2c1C(=O)NC2=O)c1cccc(N2C(=O)CCC2=O)c1`, the IC50 was > 30 µM (inactive).
In the case of `CCOc1cc(C2C3=C(CC(C)(C)CC3=O)Nc3n[nH]c(C)c32)ccc1O` (stereo not given), the IC50 is reported as 3.32 µM.
With `Cc1ccc(C2C3=C(CC(C)(C)CC3=O)Nc3onc(C)c32)cc1` (stereo not given) the IC50 was > 30 µM (inactive).
In the case of `COc1ccc(-c2nn(-c3ccccc3)cc2/C=N/Nc2ccc3ccccc3n2)cc1OC`, the IC50 is reported as > 30 µM (inactive).
`O=C(N/N=C/c1ccc(O)c(O)c1)N/N=C/c1ccc(O)c(O)c1` was tested, and the IC50 was 13.3 µM.
In the case of `CCCCOC(=O)C1=C(C)Nc2ncnn2C1c1cc(OC)c(OC)cc1OC` (stereo not given), the IC50 is reported as > 30 µM (inactive).
For `COc1ccc(OC)c(C2Nc3ccccc3NC3=C2C(=O)CC(C)(C)C3)c1` (stereo not given), the IC50 was > 30 µM (inactive).
In the case of `O=C(O)CCn1cc(/C=N/O)c(-c2cccc([N+](=O)[O-])c2)n1`, the IC50 is reported as 7.38 µM.
With `Clc1ccc(/C=N/Nc2ncnc3nc[nH]c23)cc1` the IC50 was 20.4 µM.
Work on `COc1ccc(-c2nn(-c3ccccc3)cc2/C=N/O)cc1` yielded an IC50 of 0.432 µM.
With `Oc1ccc(/C=N/Nc2ncnc3nc[nH]c23)cc1` the IC50 was > 30 µM (inactive).
In the case of `CC1(C)CC(=O)C2=C(C1)Nc1ccccc1NC2c1cccs1` (stereo not given), the IC50 is reported as > 30 µM (inactive).
`Cc1cc(=O)[nH]c(N/N=C/c2ccc(-c3ccc([N+](=O)[O-])cc3)o2)n1` was tested, and the IC50 was > 30 µM (inactive).
In the case of `O=C1CCCC2=C1C(c1cccs1)n1nc(SCc3ccccc3)nc1N2` (stereo not given), the IC50 is reported as > 30 µM (inactive).
For `COc1ccc(-c2nn(-c3ccccc3)cc2/C=N/N2C(=O)CSC2=S)cc1`, the IC50 was > 30 µM (inactive).
In the case of `CC1=C(C#N)C(c2ccc(O)cc2)C2=C(CC(C)(C)CC2=O)N1` (stereo not given), the IC50 is reported as > 30 µM (inactive).
